Reference: publication PMC7721897, “Metabolism and pharmacokinetics of a novel polyphenol fatty acid ester phloridzin docosahexaenoate in Balb/c female mice” (Scientific Reports, 2020)
Where two headings read alike, the source gives them in different places.

Columns and labels:
[1] = Serum pharmacokinetics after intraperitoneal injection; assay type: in vivo, Balb/c female mice; settings: 100 mg/kg intraperitoneal; for Cmax: read-out: Maximum serum concentration (Cmax)
Description: Figure 4 Intraperitoneal administration of PZ-DHA results in absorption into the systemic circulation of Balb/c female mice. PZ-DHA (100 mg/kg) was administered by intraperitoneal injection to Balb/c female mice. Blood collection was performed and serum was separated. PZ-DHA was identified and quantified using a calibration curve (R^2 = 0.99) generated using a standard series of PZ-DHA concentrations made in mouse serum. PZ-DHA concentration was plotted against time. The elimination rate of PZ-DHA was determined using a semi-log curve of PZ-DHA concentration vs. time curve.
(§1) Pharmacokinetic parameters and in vivo generation of PZ-DHA metabolites were studied using Balb/c female mice. Mice were randomly divided into six groups (n = 4/group) and PZ-DHA (100 mg/kg) was administered by intraperitoneal injection. For each mouse, a single blood collection was performed by cardiac puncture at one of six different time points (t = 15, 30, 60, 90, 120, and 240 min). At the end of blood collection, mice were euthanized by cervical dislocation and organs (liver, lungs, kidneys, spleen, and brain) were harvested. Blood samples were allowed to clot by leaving undisturbed at room temperature for 1 h, and serum was separated by centrifuging at 2000×g for 10 min at 4 °C. The serum was carefully removed and stored on ice until further processing. Serum proteins were precipitated by incubating an aliquot of serum with a mixture of acetonitrile:acetone (80:20) containing 0.1 mg/mL quercetin (internal standard) at 4 °C overnight. The supernatant was separated by centrifuging at 14,000×g for 10 min at 4 °C. Excess solvent was evaporated using nitrogen flush and mixed with methanol and filtered. PZ-DHA-metabolites in the filtrate were identified using a UPLC-ESI–MS/MS (Waters Limited, Mississauga, ON, Canada). Organs were homogenized in PBS (1:5 w/v). Supernatants were collected by centrifugation at 14,000 × g for 15 min at 4 °C. Proteins were precipitated by incubating in acetonitrile:acetone (80:20) containing 0.1 mg/mL quercetin (internal standard) at 4 °C overnight. Supernatants were treated as explained above, and PZ-DHA and/or PZ-DHA-metabolites were identified.
A calibration curve (R^2 = 0.99) generated using a standard series of PZ-DHA concentrations prepared in mouse serum (spiked with 0.1 mg/mL quercetin) was used for the quantification of PZ-DHA. The average PZ-DHA concentrations were plotted against time. The maximum serum concentration of serum (Cmax) and the time to reach Cmax (Tmax) were read directly from the graph. The linear trapezoidal method was used to calculate the area under the curve (AUC) from t = 0 to infinity, the biological half-life of PZ-DHA (t1/2), determined using the plotted curve in Graphpad Prism software (version 5; La Jolla, CA, USA). The clearance following IP administration was determined by non-compartmental analysis using the relationship CL/F = D/AUC. The elimination rate constant λ was determined by linear regression of the elimination phase of the semi-log transformed concentration versus time curve. The t1/2 was calculated using the formula 0.693/λ and the volume of distribution Vd/F from the formula Vd/F = CL/(F*λ).

[2] = Tissue distribution of PZ-DHA and metabolites after intraperitoneal injection; assay type: in vivo, Balb/c female mice; settings: female, Balb/c, mouse, intraperitoneal, 100 mg/kg
Description: Figure 5 PZ-DHA and metabolites were detected in various organs of PZ-DHA-treated Balb/c female mice. PZ-DHA (100 mg/kg) was administered by intraperitoneal injection to Balb/c female mice and liver, lungs, kidneys, spleen and brain were harvested. Organs were homogenized and PZ-DHA in (A) liver, kidneys, lungs, spleen, and brain was identified and quantified using a calibration curve. The abundance of (B) 4,4′,6′-tri-O-methyl-phloridzin docosahexaenoate in liver, kidneys, lungs, and serum) and (C) phloridzin docosahexaenoate-4,4′-di-O-sulphide in the liver was determined in PZ-DHA equivalence.
as §1

[3] = tested on: mammary carcinoma cells (MDA-MB-231, MDA-MB-468, 4T1, MCF-7) and MCF-10A; parameters: method as in PMID 27535497; settings: cited from earlier work
[4] = brain/serum, read-out: Tissue/serum ratio of PZ-DHA (Mean ± SD) Brain/serum
[5] = kidneys/serum, read-out: Tissue/serum ratio of PZ-DHA (Mean ± SD) Kidneys/serum
[6] = liver/serum, read-out: Tissue/serum ratio of PZ-DHA (Mean ± SD) Liver/serum
[7] = lungs/serum, read-out: Tissue/serum ratio of PZ-DHA (Mean ± SD) Lungs/serum
[8] = spleen/serum, read-out: Tissue/serum ratio of PZ-DHA (Mean ± SD) Spleen/serum

For CC/C=C\C/C=C\C/C=C\C/C=C\C/C=C\C/C=C\CCC(=O)OC[C@H]1O[C@@H](Oc2cc(O)cc(O)c2C(=O)CCc2ccc(O)cc2)[C@H](O)[C@@H](O)[C@@H]1O [PZ-DHA, phloridzin docosahexaenoate], which “Clearance (CL/F)” value [1] is on record?
Its value is 1.37 mL/min.

And the “Volume of distribution (Vd/F)” value [1]?
The value was 56.5 mL.

And the “Biological half-life (T1/2)” value ([1]; serum)?
The value was 28.7 min.

What about the Cmax ([1]; serum) of the same compound?
Its Cmax is 23.4 µM.

What about the “serum detectability at the last measured time” value ([1]; 240 min) of the same compound?
Its value is “remained detectable”.

And the Tmax ([1]; female, Balb/c, mouse, ip, serum, read-out: Time to reach maximum serum concentration (Tmax) (converted))?
The Tmax was 60 min.

And the half-life ([1]; female, Balb/c, mouse, serum, ip, 100 mg/kg, serum, read-out: Biological half-life (T1/2))?
The half-life was 28 min.

What about the Cmax ([1]; female, Balb/c, mouse, serum, ip, 100 mg/kg, serum) of the same compound?
The Cmax was 23.7 µM.

What about the Vd/F ([1]; female, Balb/c, mouse, serum, ip, 100 mg/kg, read-out: Volume of distribution (Vd/F)) of the same compound?
The Vd/F was 0.057 L.

What about the AUC ([1]; female, Balb/c, mouse, serum, ip, t = 0 to infinity, read-out: The area under the curve (AUC) (converted)) of the same compound?
Its AUC is 36.6 µM·h.

And the k el ([1]; female, Balb/c, mouse, serum, ip, read-out: Elimination rate (λz) (converted))?
Its k el is 0.0004 s⁻¹.

And the concentration at 15 min ([1]; female, Balb/c, mouse, serum, ip, 15 min, read-out: serum concentration at the 1st measured time point)?
The concentration at 15 min was 0.9 ± 0.4 µM.

And the Kp at 15 min [2, 4]?
The Kp at 15 min was 0.51 ± 0.17.

And the Kp at 30 min [2, 4]?
Its Kp at 30 min is 0.64 ± 0.11.

And the Kp at 60 min [2, 4]?
The Kp at 60 min was 0.95 ± 0.68.

And the Kp at 90 min [2, 4]?
The Kp at 90 min was 1.01 ± 0.19.

And the Kp at 120 min [2, 4]?
Its Kp at 120 min is 1.31 ± 0.67.

What about the Kp at 240 min [2, 4] of the same compound?
The Kp at 240 min was 1.94 ± 0.75.

And the Kp at 15 min [2, 5]?
Its Kp at 15 min is 0.66 ± 0.03.

What about the Kp at 30 min [2, 5] of the same compound?
The Kp at 30 min was 1.29 ± 0.22.

What about the Kp at 60 min [2, 5] of the same compound?
The Kp at 60 min was 0.81 ± 0.34.

And the Kp at 90 min [2, 5]?
Its Kp at 90 min is 0.89 ± 0.26.

What about the Kp at 120 min [2, 5] of the same compound?
Its Kp at 120 min is 2.71 ± 1.41.

What about the Kp at 240 min [2, 5] of the same compound?
Its Kp at 240 min is 2.71 ± 1.08.

And the Kp at 15 min [2, 6]?
The Kp at 15 min was 0.14 ± 0.06.

And the Kp at 30 min [2, 6]?
The Kp at 30 min was 0.16 ± 0.08.

What about the Kp at 60 min [2, 6] of the same compound?
Its Kp at 60 min is 4.68 ± 2.02.

And the Kp at 90 min [2, 6]?
The Kp at 90 min was 2.69 ± 2.17.

What about the Kp at 120 min [2, 6] of the same compound?
The Kp at 120 min was 1.03 ± 0.73.

And the Kp at 240 min [2, 6]?
Its Kp at 240 min is 0.99 ± 0.23.

What about the Kp at 15 min [2, 7] of the same compound?
Its Kp at 15 min is 3.33 ± 1.51.

What about the Kp at 30 min [2, 7] of the same compound?
Its Kp at 30 min is 2.04 ± 1.09.

And the Kp at 60 min [2, 7]?
The Kp at 60 min was 1.05 ± 0.014.

And the Kp at 90 min [2, 7]?
Its Kp at 90 min is 3.51 ± 2.44.

What about the Kp at 120 min [2, 7] of the same compound?
Its Kp at 120 min is 3.82 ± 1.74.

And the Kp at 240 min [2, 7]?
The Kp at 240 min was 4.97 ± 1.37.

What about the Kp at 15 min [2, 8] of the same compound?
The Kp at 15 min was 3.29 ± 1.56.

What about the Kp at 30 min [2, 8] of the same compound?
The Kp at 30 min was 3.17 ± 0.72.

What about the Kp at 60 min [2, 8] of the same compound?
Its Kp at 60 min is 4.18 ± 1.01.

And the Kp at 90 min [2, 8]?
Its Kp at 90 min is 5.24 ± 1.75.

And the Kp at 120 min [2, 8]?
The Kp at 120 min was 10.9 ± 8.42.

What about the Kp at 240 min [2, 8] of the same compound?
Its Kp at 240 min is 16.1 ± 5.98.

And the “selective cytotoxicity, malignant versus non-malignant cells” value [3]?
The value was “selectively kills mammary carcinoma cells”.
